“And” between values parts separate entries of the source, which are not always exact repeats. Equal values may be shown once. Read-outs that look alike come from different tables or passages of the source.
Columns and labels:
[1] = Pharmacokinetic (toxicokinetic) study, plasma; assay type: in vivo, Sprague Dawley rats; settings: for RAUC (RATIO): Day 3 AUC(0-t) / Day 1 AUC(0-t) / Cmax / Tmax / half-life / clearance / Vd / AUC(0-t): plasma; for Cmax / Tmax / half-life / clearance / Vd / AUC(0-t): Sprague Dawley, rat
Protocol: For the PK study of AVR-48 in rats, a formulation consisting of 10% DMSO, 20% tetraglycol, 20% PEG 400, and 50% sterile water was developed. Each preparation was made on the same day of dose administration. The components of the control/vehicle item formulation were added sequentially. Briefly, the appropriate volume of DMSO (10% of the final volume) was measured into a container followed by gradual addition of PEG 400 (20% of the final volume) and sterile water (50% of the final volume) to make up the volume and mixed thoroughly till completely dissolved. The final solution was filtered through a 0.22 µm membrane filter (Millipore Millex® GP PES, St. Louis, MO, USA) into a sterile vial. All PK studies were also conducted with 8–10-week-old male and female Sprague Dawley rats. An additional nine animals/sex/dose were used for PK analysis and blood (approximately 0.3 mL each) was collected from each rat on days 1 and 3 of the treatment period at time points of 5, 30, 60, 90, 120, and 180 min, and 6, 12 h, and 24 h post dose that were randomized to provide a total of three samples/sex for each time point. Samples were collected by jugular venipuncture and the samples were collected into tubes containing the anticoagulant, K3EDTA. The collection of BALF was limited to the terminal time points of 6 h, 12 h, and 24 h. AVR-48 concentrations in the blood and BALF were determined using LC/MS/MS analysis developed in house. PK parameters were estimated using Phoenix pharmacokinetic software (Certara, Princeton, NJ, USA) using a non-compartmental approach consistent with the IV bolus injection.

CLP-induced sepsis mice = experiment: CLP-induced sepsis survival study; assay type: in vivo, C57BL6/J mice; settings: AVR-48 10 mg/kg IV at 16 h and 24 h after CLP, imipenem 5 mg/kg SC at 30 min; 10 days; CLP alone 100% mortality within 72 h
Protocol: For CLP-induced lung injury, CLP was performed as previously described by us. As antibiotics are the standard of care in sepsis patients, one dose of imipenem was given SC at 5 mg/kg 30 min after the procedure, followed by two doses of AVR-48 (10 mg/kg, IV) at 16 h and 24 h following the surgery, and sacrificed after 72 h. The sham mice (controls) had the abdominal cavity opened, the cecum was not perforated, and the peritoneum was stitched back.
For the survival study of CLP-induced ALI, mice were injected with 2 doses of AVR-48 (IV) followed by 1 dose of imipenem (SC) as described in the CLP methodology, and allowed to survive for 10 days. Sterility was maintained throughout the procedure by operating the animals under a laminar hood. Following the procedure, the animals were returned back to the animal room for subsequent monitoring and follow up. The body temperature was recorded every 24h and feeding and social behavior was also observed. They were fed with semisolid food for 48h before resuming their regular chow diet. All mice were sacrificed after 10 days. (N=3 for sham and 5 for the rest of the groups). A CLP + imipenem group was not done in this study, as we have published this group […]
imipenem, better than CLP + imipenem alone. Histopathology of the vital organs was performed and scored as previously published (37, 38) and noted in the methods section of this paper.

CC(=O)N[C@H]1[C@H](Oc2ccc([N+](=O)[O-])cc2)O[C@H](CO)[C@@H](O)[C@@H]1O [AVR-48, N-((2S,3R,4R,5S,6R)-4,5-dihydroxy-6-(hydroxymethyl)-2-(4-nitrophenoxy)tetrahydro-2H-pyran-3-yl) acetamide]
RAUC (RATIO): Day 3 AUC(0-t) / Day 1 AUC(0-t) ([1]; 40 mg/kg IV, Female): 0.679
RAUC (RATIO): Day 3 AUC(0-t) / Day 1 AUC(0-t) ([1]; 40 mg/kg IV, Male): 0.928
RAUC (RATIO): Day 3 AUC(0-t) / Day 1 AUC(0-t) ([1]; 80 mg/kg IV, Female): 0.953
RAUC (RATIO): Day 3 AUC(0-t) / Day 1 AUC(0-t) ([1]; 80 mg/kg IV, Male): 0.777
Cmax ([1]; iv, 40 mg/kg, 40 mg/kg dose IV, read-out: Cmax): 364 ± 9.36 µM
Cmax ([1]; iv, 80 mg/kg, 80 mg/kg dose IV, read-out: Cmax): 749.3 ± 5.25 µM
Cmax ([1]; other: IV or IP, 10 mg/kg, single IV or IP 10 mg/kg dose, extrapolated from Cmax at 40 mg/kg, read-out: Cmax in plasma expected for 10 mg/kg): ~91 µM
Tmax ([1]; Day 1, 40 mg/kg IV, Female): 5 min
Tmax ([1]; Day 1, 80 mg/kg IV, Female): 5 min
Tmax ([1]; Day 1, 80 mg/kg IV, Male): 5 min
Tmax ([1]; Day 3, 40 mg/kg IV, Male): 5 min
AUC(0-t) dose dependence ([1]; between 40 and 80 mg/kg/day dose groups): increased in a dose-dependent manner
half-life ([1]; both sexes, intravenous, 80 mg/kg, both doses (40 and 80 mg/kg), read-out: half-life (T1/2)): 1.4 to 2.34 h
clearance ([1]; both sexes, intravenous, day 1 and day 3 of dosing, read-out: clearance (CL)): 12.4 to 18.3 mL/min/kg
Vd ([1]; both sexes, intravenous, day 1 and day 3 of dosing, read-out: volume of distribution (Vd)): 1.51 to 3.72 L/kg
AUC(0-t) ([1]; female, iv, 40 mg/kg, Day 1, 40 mg/kg IV, Female): 53900 ± 2860 ng·h/mL
clearance ([1]; female, iv, 40 mg/kg, Day 1, 40 mg/kg IV, Female, read-out: Cl (converted)): 12.4 mL/min/kg
Cmax ([1]; female, iv, 40 mg/kg, Day 1, 40 mg/kg IV, Female, read-out: Cmax ± SE): 129000 ng/mL and 377 µM
half-life ([1]; female, iv, 40 mg/kg, Day 1, 40 mg/kg IV, Female, read-out: T1/2 (converted)): 1.4 h
Vd ([1]; female, iv, 40 mg/kg, Day 1, 40 mg/kg IV, Female, read-out: Vd): 1.51 L/kg
AUC(0-t) ([1]; female, iv, 40 mg/kg, Day 3, 40 mg/kg IV, Female): 36600 ng·h/mL
clearance ([1]; female, iv, 40 mg/kg, Day 3, 40 mg/kg IV, Female, read-out: Cl (converted)): 18.3 mL/min/kg
Cmax ([1]; female, iv, 40 mg/kg, Day 3, 40 mg/kg IV, Female, read-out: Cmax ± SE): 90400 ng/mL and 264 µM
half-life ([1]; female, iv, 40 mg/kg, Day 3, 40 mg/kg IV, Female, read-out: T1/2 (converted)): 2.34 h
Vd ([1]; female, iv, 40 mg/kg, Day 3, 40 mg/kg IV, Female, read-out: Vd): 3.72 L/kg
AUC(0-t) ([1]; female, iv, 80 mg/kg, Day 1, 80 mg/kg IV, Female): 101000 ng·h/mL
clearance ([1]; female, iv, 80 mg/kg, Day 1, 80 mg/kg IV, Female, read-out: Cl (converted)): 13.4 mL/min/kg
Cmax ([1]; female, iv, 80 mg/kg, Day 1, 80 mg/kg IV, Female, read-out: Cmax ± SE): 237000 ng/mL and 692 µM
half-life ([1]; female, iv, 80 mg/kg, Day 1, 80 mg/kg IV, Female, read-out: T1/2 (converted)): 1.45 h
Vd ([1]; female, iv, 80 mg/kg, Day 1, 80 mg/kg IV, Female, read-out: Vd): 1.68 L/kg
AUC(0-t) ([1]; female, iv, 80 mg/kg, Day 3, 80 mg/kg IV, Female): 95800 ng·h/mL
clearance ([1]; female, iv, 80 mg/kg, Day 3, 80 mg/kg IV, Female, read-out: Cl (converted)): 14 mL/min/kg
Cmax ([1]; female, iv, 80 mg/kg, Day 3, 80 mg/kg IV, Female, read-out: Cmax ± SE): 227000 ng/mL and 663 µM
half-life ([1]; female, iv, 80 mg/kg, Day 3, 80 mg/kg IV, Female, read-out: T1/2 (converted)): 2.05 h
Vd ([1]; female, iv, 80 mg/kg, Day 3, 80 mg/kg IV, Female, read-out: Vd): 2.48 L/kg
AUC(0-t) ([1]; male, iv, 40 mg/kg, Day 1, 40 mg/kg IV, Male): 49800 ± 962 ng·h/mL
clearance ([1]; male, iv, 40 mg/kg, Day 1, 40 mg/kg IV, Male, read-out: Cl (converted)): 13.4 mL/min/kg
Cmax ([1]; male, iv, 40 mg/kg, Day 1, 40 mg/kg IV, Male, read-out: Cmax ± SE): 351 µM and 120000 ng/mL
half-life ([1]; male, iv, 40 mg/kg, Day 1, 40 mg/kg IV, Male, read-out: T1/2 (converted)): 1.64 h
Vd ([1]; male, iv, 40 mg/kg, Day 1, 40 mg/kg IV, Male, read-out: Vd): 1.91 L/kg
AUC(0-t) ([1]; male, iv, 40 mg/kg, Day 3, 40 mg/kg IV, Male): 46200 ng·h/mL
clearance ([1]; male, iv, 40 mg/kg, Day 3, 40 mg/kg IV, Male, read-out: Cl (converted)): 14.5 mL/min/kg
Cmax ([1]; male, iv, 40 mg/kg, Day 3, 40 mg/kg IV, Male, read-out: Cmax ± SE): 115000 ng/mL and 336 µM
half-life ([1]; male, iv, 40 mg/kg, Day 3, 40 mg/kg IV, Male, read-out: T1/2 (converted)): 2.16 h
Vd ([1]; male, iv, 40 mg/kg, Day 3, 40 mg/kg IV, Male, read-out: Vd): 2.71 L/kg
AUC(0-t) ([1]; male, iv, 80 mg/kg, Day 1, 80 mg/kg IV, Male): 118000 ng·h/mL
clearance ([1]; male, iv, 80 mg/kg, Day 1, 80 mg/kg IV, Male, read-out: Cl (converted)): 11.3 mL/min/kg
Cmax ([1]; male, iv, 80 mg/kg, Day 1, 80 mg/kg IV, Male, read-out: Cmax ± SE): 276000 ng/mL and 806 µM
half-life ([1]; male, iv, 80 mg/kg, Day 1, 80 mg/kg IV, Male, read-out: T1/2 (converted)): 2.05 h
Vd ([1]; male, iv, 80 mg/kg, Day 1, 80 mg/kg IV, Male, read-out: Vd): 2.02 L/kg
AUC(0-t) ([1]; male, iv, 80 mg/kg, Day 3, 80 mg/kg IV, Male): 91500 ng·h/mL
clearance ([1]; male, iv, 80 mg/kg, Day 3, 80 mg/kg IV, Male, read-out: Cl (converted)): 14.7 mL/min/kg
Cmax ([1]; male, iv, 80 mg/kg, Day 3, 80 mg/kg IV, Male, read-out: Cmax ± SE): 190000 ng/mL and 555 µM
half-life ([1]; male, iv, 80 mg/kg, Day 3, 80 mg/kg IV, Male, read-out: T1/2 (converted)): 1.42 h
Vd ([1]; male, iv, 80 mg/kg, Day 3, 80 mg/kg IV, Male, read-out: Vd): 1.8 L/kg
accumulation ([1]; three days of twice daily administration): no accumulation
survival (CLP-induced sepsis mice): 80%

— paper PMC7961996, “Small Immunomodulatory Molecules as Potential Therapeutics in Experimental Murine Models of Acute Lung Injury (ALI)/Acute Respiratory Distress Syndrome (ARDS)” (International Journal of Molecular Sciences, 2021)
